Results from patent US20140135310A1, “SULPHONAMIDE DERIVATIVES OF ALICYCLIC AMINES FOR THE TREATMENT OF CENTRAL NERVOUS SYSTEM DISEASES” (Adamed Sp. z o.o., priority 2011, published 2014).

Experiments:
[1] = target: T1, 5-HT6 receptor (Homo sapiens, UniProt P50406); test: Radioligand binding assay, serotoninergic 5-HT6 receptors; conditions: binding assay result in %, Table 5a;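 also: test compound at 1 µM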
T1 construct: purchased PerkinElmer
Procedure, shortened: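 Values are Ki from Cheng–Prusoff, taking IC50 from Hill nonlinear regression of competition curves and KD from a Scatchard plot. Specific binding was total minus binding with excess unlabelled ligand. Radioligand displacement was detected by scintillation counting, and data were also reported as percent of control specific binding.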

[2] = target: T2, 5-HT7 receptor (Homo sapiens, UniProt P34969); test: Radioligand binding assay, serotoninergic 5-HT7 receptors; conditions: binding assay result in %, Table 5a;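 also: test compound at 1 µM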
T2 construct: purchased PerkinElmer
Procedure, shortened: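 Ki values used the Cheng–Prusoff equation, with KD from Scatchard analysis, applied to IC50 from Hill fits of human 5-HT7 radioligand competition curves. Bound radioligand was counted by scintillation, and excess unlabelled ligand set the non-specific binding.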

[3] = test system: α1 adrenergic receptors (rat cerebral cortex); test: Radioligand binding assay, adrenergic α1 receptors; conditions: test compound 1×10^−6 M
Procedure, shortened: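 Values derive from radioligand displacement, with non-specific binding defined by excess cold ligand and detection by scintillation. Hill-fit IC50s were converted to Ki via Cheng-Prusoff using Scatchard-derived Kd; percent inhibition of control specific binding also reported.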

[4] = target: T3, 5-HT2A receptor (Homo sapiens, UniProt P28223); test: Radioligand binding assay, serotoninergic 5-HT2A receptors; conditions: binding assay result in %, Table 5a
T3 construct: purchased PerkinElmer
Procedure, shortened: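 Competition curves from scintillation-counted specific binding (total minus binding with excess unlabelled ligand) were Hill-fitted to give IC50, converted to Ki via Cheng-Prusoff using Scatchard-derived Kd.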

[5] = target: dopaminergic receptors D3 (Homo sapiens, UniProt P35462); test: Radioligand binding assay, dopaminergic D3 receptors; conditions: test compound 1×10^−6 M
Procedure, shortened: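 Scintillation read-out. Specific = total − nonspecific (excess cold ligand). Data as % of control specific binding / % inhibition; IC50 by Hill fit; Ki = IC50/(1+L/KD), KD from Scatchard plot.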

[6] = target: T4, serotonin transporter (SERT) (Homo sapiens, UniProt P31645); test: Radioligand binding assay, serotonin transporter (SERT); conditions: binding assay, test compound 1×10^−6 M
T4 construct: expressed in transfected cells; host or cells: CHO cells
Procedure, shortened: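 Values are derived from competition curves fitted by the Hill equation to give IC50, then converted to Ki by Cheng-Prusoff with radioligand Kd from Scatchard analysis. Specific binding equals total minus non-specific (excess cold ligand), counted by scintillation, and is also expressed as percent inhibition of control.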

[7] = target: dopaminergic receptors D2 (Homo sapiens, UniProt P14416); test: Radioligand binding assay, dopaminergic D2 receptors; conditions: binding assay, test compound 1×10^−6 M
Procedure, shortened: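 Values derive from competition curves: percent inhibition of control specific binding was fitted by Hill non-linear regression for IC50, and Ki calculated with Cheng–Prusoff from radioligand concentration and KD (Scatchard). Bound ligand was detected by scintillation counting.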

[8] = target: T5, 5-HT1A receptor (rat hippocampus) (Rattus norvegicus, UniProt P19327); test: Radioligand binding assay, serotoninergic 5-HT1A receptors; conditions: binding assay result in %, Table 5a;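 also: test compound at 1 µM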
T5 construct: hippocampus; from tissue; host or cells: rat hippocampus
T5 sequence (P19327 1-422): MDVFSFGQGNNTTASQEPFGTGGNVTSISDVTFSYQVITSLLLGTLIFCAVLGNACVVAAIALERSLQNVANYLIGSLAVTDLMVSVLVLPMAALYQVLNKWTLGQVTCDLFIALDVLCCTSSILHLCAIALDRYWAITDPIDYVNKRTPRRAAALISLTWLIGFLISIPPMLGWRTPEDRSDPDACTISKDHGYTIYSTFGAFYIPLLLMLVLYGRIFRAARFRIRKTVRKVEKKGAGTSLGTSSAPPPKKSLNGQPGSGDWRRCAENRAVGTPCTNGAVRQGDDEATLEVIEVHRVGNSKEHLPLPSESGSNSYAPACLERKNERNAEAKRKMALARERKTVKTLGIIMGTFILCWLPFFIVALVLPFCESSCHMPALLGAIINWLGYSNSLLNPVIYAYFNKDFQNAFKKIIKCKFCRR

dopaminergic receptors D2, sequence (P14416 whole entry): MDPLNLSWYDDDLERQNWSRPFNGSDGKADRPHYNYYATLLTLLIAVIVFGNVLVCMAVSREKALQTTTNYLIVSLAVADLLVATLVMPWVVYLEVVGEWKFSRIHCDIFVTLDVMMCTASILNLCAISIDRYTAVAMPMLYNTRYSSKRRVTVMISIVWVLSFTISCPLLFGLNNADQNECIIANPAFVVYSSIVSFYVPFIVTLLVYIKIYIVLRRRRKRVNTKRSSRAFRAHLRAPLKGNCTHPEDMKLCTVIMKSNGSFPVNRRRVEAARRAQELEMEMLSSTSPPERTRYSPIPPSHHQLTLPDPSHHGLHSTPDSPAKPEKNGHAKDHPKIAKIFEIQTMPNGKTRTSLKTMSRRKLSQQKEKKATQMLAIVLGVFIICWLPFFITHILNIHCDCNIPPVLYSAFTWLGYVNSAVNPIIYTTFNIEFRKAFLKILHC
dopaminergic receptors D3, sequence (P35462 whole entry): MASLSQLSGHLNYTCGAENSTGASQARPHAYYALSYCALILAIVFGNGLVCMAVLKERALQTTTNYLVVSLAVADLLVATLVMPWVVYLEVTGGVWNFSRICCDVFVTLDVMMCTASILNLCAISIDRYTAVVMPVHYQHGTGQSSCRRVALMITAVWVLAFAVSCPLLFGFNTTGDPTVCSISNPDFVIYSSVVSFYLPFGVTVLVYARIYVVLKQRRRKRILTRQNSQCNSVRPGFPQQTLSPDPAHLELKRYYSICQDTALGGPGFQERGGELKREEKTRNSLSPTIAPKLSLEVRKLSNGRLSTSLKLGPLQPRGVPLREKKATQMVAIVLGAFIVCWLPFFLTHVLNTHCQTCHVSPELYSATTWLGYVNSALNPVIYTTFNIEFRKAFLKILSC
T3 sequence (P28223 whole entry): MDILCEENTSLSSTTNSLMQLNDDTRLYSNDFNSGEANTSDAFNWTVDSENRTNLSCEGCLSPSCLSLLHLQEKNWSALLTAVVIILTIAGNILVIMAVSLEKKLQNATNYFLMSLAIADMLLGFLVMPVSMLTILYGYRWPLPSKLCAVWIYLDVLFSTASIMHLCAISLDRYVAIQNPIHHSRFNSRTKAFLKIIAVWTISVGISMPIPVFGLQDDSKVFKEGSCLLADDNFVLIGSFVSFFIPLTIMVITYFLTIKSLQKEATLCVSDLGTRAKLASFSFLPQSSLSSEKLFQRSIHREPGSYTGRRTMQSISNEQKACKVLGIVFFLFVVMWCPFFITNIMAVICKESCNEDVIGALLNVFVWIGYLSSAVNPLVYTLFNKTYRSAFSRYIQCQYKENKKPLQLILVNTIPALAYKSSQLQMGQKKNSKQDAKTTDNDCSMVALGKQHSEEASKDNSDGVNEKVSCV
T2 sequence (P34969 whole entry): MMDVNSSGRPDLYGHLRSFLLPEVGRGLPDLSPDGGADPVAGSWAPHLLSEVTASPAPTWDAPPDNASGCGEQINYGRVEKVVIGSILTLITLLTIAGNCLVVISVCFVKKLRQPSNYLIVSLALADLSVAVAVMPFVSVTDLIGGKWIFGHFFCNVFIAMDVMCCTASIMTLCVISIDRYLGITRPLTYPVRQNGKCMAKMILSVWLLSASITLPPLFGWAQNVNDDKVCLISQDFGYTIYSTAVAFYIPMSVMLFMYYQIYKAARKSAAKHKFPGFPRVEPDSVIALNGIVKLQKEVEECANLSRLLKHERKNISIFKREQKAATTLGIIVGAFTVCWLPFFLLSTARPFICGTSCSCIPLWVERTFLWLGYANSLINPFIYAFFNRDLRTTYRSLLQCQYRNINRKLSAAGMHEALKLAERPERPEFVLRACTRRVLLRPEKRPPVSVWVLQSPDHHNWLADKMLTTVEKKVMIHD
T1 sequence (P50406 whole entry): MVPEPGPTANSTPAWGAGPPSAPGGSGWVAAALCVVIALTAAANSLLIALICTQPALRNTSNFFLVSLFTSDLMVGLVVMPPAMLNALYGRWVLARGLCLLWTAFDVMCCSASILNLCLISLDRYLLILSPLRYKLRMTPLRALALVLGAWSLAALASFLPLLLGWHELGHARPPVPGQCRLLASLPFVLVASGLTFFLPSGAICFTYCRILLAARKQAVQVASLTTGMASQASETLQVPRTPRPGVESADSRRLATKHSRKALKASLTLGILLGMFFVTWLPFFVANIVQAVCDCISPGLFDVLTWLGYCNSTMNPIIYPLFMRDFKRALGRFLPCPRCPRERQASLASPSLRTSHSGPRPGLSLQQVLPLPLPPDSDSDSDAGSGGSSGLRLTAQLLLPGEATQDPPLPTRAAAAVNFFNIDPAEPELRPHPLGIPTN
T4 sequence (P31645 whole entry): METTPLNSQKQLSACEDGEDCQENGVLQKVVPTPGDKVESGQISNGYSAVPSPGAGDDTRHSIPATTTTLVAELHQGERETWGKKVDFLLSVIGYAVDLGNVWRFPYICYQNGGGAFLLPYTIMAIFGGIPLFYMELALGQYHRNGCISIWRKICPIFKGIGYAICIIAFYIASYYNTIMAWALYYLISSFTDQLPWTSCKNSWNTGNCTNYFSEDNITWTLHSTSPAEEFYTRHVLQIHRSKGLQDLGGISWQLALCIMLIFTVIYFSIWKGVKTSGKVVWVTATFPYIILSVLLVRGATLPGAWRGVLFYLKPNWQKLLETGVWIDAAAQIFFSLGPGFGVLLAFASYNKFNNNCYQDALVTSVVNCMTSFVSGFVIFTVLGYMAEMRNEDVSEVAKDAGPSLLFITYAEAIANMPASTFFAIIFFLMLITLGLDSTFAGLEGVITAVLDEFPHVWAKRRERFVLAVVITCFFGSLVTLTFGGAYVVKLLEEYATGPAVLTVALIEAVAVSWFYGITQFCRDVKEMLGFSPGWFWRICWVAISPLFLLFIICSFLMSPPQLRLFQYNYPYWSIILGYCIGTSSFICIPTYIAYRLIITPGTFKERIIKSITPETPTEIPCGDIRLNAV

Row | SMILES | inhibition at 1 µM [1] [%] | inhibition at 1 µM [2] [%] | α1 [%] [3] [%] | inhibition at 1 µM [4] [%] | inhibition at 1 µM [5] [%] | inhibition at 1 µM [6] [%] | inhibition at 1 µM [7] [%] | inhibition at 1 µM [8] [%] | 5-HT6 [%] [1] [%] | 5-HT7 [%] [2] [%] | 5-HT2A [%] [4] [%] | D3 [%] [5] [%] | SERT [%] [6] [%] | D2 [%] [7] [%] | 5-HT1A [%] [8] [%]
1 | CC1(C)Cc2cccc(OCCN3CCC(CNS(=O)(=O)c4cccc(O)c4)C3)c2O1 (centres unmarked) [Compound 113, N-[[1-[2-[(2,2-Dimethyl-3H-benzofuran-7-yl)oxy]ethyl]pyrrolidin-3-yl]methyl]-3-hydroxy-benzenesulphonamide] | 52 | 85 | 55 | 65 | 55 | 18 | 47 | 81 | – | – | – | – | – | – | –
2 | O=S(=O)(NCC1CN(CCOc2cccc3c2OCCO3)C1)c1ccc(C(F)(F)F)cc1 [Compound 180, N-[[1-[2-(2,3-Dihydro-1,4-benzodioxin-5-yloxy)ethyl]azetidin-3-yl]methyl]-4-(trifluoromethyl)benzenesulphonamide] | 31 | 94 | 39 | 68 | 46 | 14 | 23 | 93 | – | – | – | – | – | – | –
3 | O=S(=O)(NC1CCN(CCCc2noc3cc(F)ccc23)CC1)c1ccc(-c2ccccc2)cc1 [Compound 327, N-[1-[3-(6-Fluoro-1,2-benzoxazol-3-yl)propyl]-4-piperidyl]-4-phenylbenzenesulphonamide] | 68 | 86 | 81 | 94 | 56 | 33 | 79 | 20 | – | – | – | – | – | – | –
4 | O=S(=O)(NC1CCN(CCOc2cccc3ccccc23)CC1)c1cccc(O)c1 [Compound 119, 3-Hydroxy-N-[1-[2-(1-naphthyloxy)ethyl]-4-piperidine]benzene-sulphonamide] | – | – | 78 | – | – | – | – | – | 57 | 85 | 69 | 93 | 10 | 79 | 89
5 | O=S(=O)(NC1CCN(CCCc2noc3cc(F)ccc23)CC1)c1ccc2cc(Cl)ccc2c1 [Compound 325, 6-Chloro-N-[1-[3-(6-fluoro-1,2-benzoxazol-3-yl)propyl]-4-piperidyl]naphthalene-2-sulphonamide] | 72 | 89 | 76 | 92 | 59 | 21 | 91 | 80 | – | – | – | – | – | – | –
6 | O=S(=O)(NC1CN(CCOc2cccc3c2OCCO3)C1)c1ccc2ccccc2c1 [Compound 95, N-[1-[2-(2,3-Dihydro-1,4-benzodioxan-8-yloxy)ethyl]azetidin-3-yl]naphthalene-2-sulphonamide] | – | – | −21 | – | – | – | – | – | 9 | 94 | 0 | 1 | −4 | 5 | 94
7 | O=S(=O)(NC1CCN(CCCc2noc3cc(F)ccc23)C1)c1ccc(Cl)s1 (centres unmarked) [Compound 22, 5-Chloro-N-[1-[3-(6-fluoro-1,2-benzoxazol-3-yl)propyl]pyrrolidin-3-yl]thiophene-2-sulphonamide] | 72 | 85 | 91 | 95 | 23 | 5 | 85 | 0 | – | – | – | – | – | – | –
8 | O=S(=O)(NCC1CN(CCOc2cccc3ccccc23)C1)c1cccc2ccccc12 [Compound 168, N-[[1-[2-(1-Naphthyloxy)ethyl]azetidin-3-yl]methyl]naphthalene-1-sulphonamide] | 93 | 92 | 31 | 96 | 94 | 25 | 64 | 79 | – | – | – | – | – | – | –
9 | O=S(=O)(NC1CCN(CCOc2cccc3[nH]ccc23)C1)c1cccc2ccccc12 (centres unmarked) [Compound 53, N-[1-[2-(1H-indol-4-yloxy)ethyl]pyrrolidin-3-yl]naphthalene-1-sulphonamide] | 54 | 102 | 88 | 85 | 99 | 56 | 74 | 90 | – | – | – | – | – | – | –
10 | O=S(=O)(NCC1CCN(CCCc2noc3cc(F)ccc23)C1)c1ccc(Cl)c(Cl)c1 (centres unmarked) [Compound 253, 3,4-Dichloro-N-[[1-[3-(6-fluoro-1,2-benzoxazol-3-yl)propyl]pyrrolidin-3-yl]methyl]benzenesulphonamide] | 101 | 97 | 94 | 99 | 55 | 12 | 87 | 34 | – | – | – | – | – | – | –
11 | O=S(=O)(NCC1CN(CCOc2cccc3ccccc23)C1)c1ccc(F)c(Cl)c1 [Compound 172, 3-Chloro-4-fluoro-N-[[1-[2-(1-naphthyloxy)ethyl]azetidin-3-yl]methyl]-benzenesulphonamide] | 96 | 92 | 40 | 71 | 100 | 46 | 76 | 85 | – | – | – | – | – | – | –
12 | O=S(=O)(NCC1CN(CCOc2cccc3ccccc23)C1)c1cc2ccc(Cl)cc2s1 [Compound 164, 6-Chloro-N-[[1-[2-(1-naphthyloxy)ethyl]azetidin-3-yl]methyl]-benzothiophene-2-sulphonamide] | 94 | 92 | 13 | 102 | 98 | 34 | 78 | 83 | – | – | – | – | – | – | –
13 | O=S(=O)(NC1CN(CCOc2cccc3[nH]ccc23)C1)c1ccccc1 [Compound 45, N-[1-[2-(1H-indol-4-yloxy)ethyl]azetidin-3-yl]benzenesulphonamide] | 0 | 93 | 72 | 75 | 87 | -4 | 53 | 88 | – | – | – | – | – | – | –
14 | O=S(=O)(NCC1CCN(CCCc2noc3cc(F)ccc23)CC1)c1cccc2ccccc12 [Compound 37, N-[[1-[3-(6-Fluoro-1,2-benzoxazol-3-yl)propyl]-4-piperidine]methyl]-naphthalene-1-sulphonamide] | – | – | 96 | – | – | – | – | – | 97 | 94 | 56 | 66 | 30 | 83 | 29
15 | O=S(=O)(NCC1CCN(CCOc2cccc3c2OCCO3)C1)c1ccc(Cl)c(Cl)c1 (centres unmarked) [Compound 301, 3,4-Dichloro-N-[[1-[2-(2,3-dihydro-1,4-benzodioxin-5-yloxy)ethyl]-pyrrolidin-3-yl]methyl]benzenesulphonamide] | 61 | 98 | 46 | 81 | 34 | 38 | -22 | 96 | – | – | – | – | – | – | –
16 | O=S(=O)(NC1CCN(CCCc2noc3cc(F)ccc23)C1)c1cccc(Cl)c1 (centres unmarked) [Compound 9, 3-Chloro-N-[1-[3-(6-fluoro-1,2-benzoxazol-3-yl)propyl]pyrrolidin-3-yl]benzenesulphonamide] | 75 | 90 | 83 | 95 | 30 | 2 | 88 | 12 | – | – | – | – | – | – | –
